Experimental data published in patent US11607464B2, “Compositions and methods for the treatment and imaging of cancer” (BOARD OF REGENTS OF THE UNIVERSITY OF NEBRASKA, priority 2018, dated 2023).

Assays:
[1] = Solubility in common solvents; assay type: physicochemical
[2] = test system: BE(2)-C neuroblastoma cells; assay: Cell survival with drug without and with ionizing radiation (XRT); assay type: cell-based, human
Procedure: (§1) Alongside all treatment groups, which included: drug alone (n=4), 4 Gy XRT alone (n=4), and drug+XRT (n=4), quadruplicate flasks of controls cells in medium containing DMSO were grown and harvested under identical culture conditions. Each treatment was tested in at least two independent experiments. The final concentration of DMSO was maintained at 0.5% in all flasks including controls. Cells grown in monolayers (50%-60% confluent) were irradiated at the dose of 4 Gy delivered at the dose rate of 1.36 Gy/minute in a Mark I 68A irradiator (J. L. Shepherd & Associates, San Fernando, Calif.). At designated times after treatment, cells were harvested, their numbers determined and plated at 200 and 500 live cells in duplicate or quadruplicate T25 flasks per each treatment. Cells were left undisturbed for ˜7 days after which time fresh medium was added and colonies were allowed to grow for up to 3 weeks. Colonies were washed with PBS, fixed with methanol, and stained with crystal violet. Briefly, colonies were washed with 5 mL ice-cold PBS, followed by 5 mL PBS/methanol (1:1; v/v), and fixed in 5 mL methanol for 10 minutes. Methanol was removed and flasks were left open to dry for a few hours. Crystal violet (3 mL; 0.25% in 1:1 PBS/methanol) was added to each flask to stain cells. After approximately 10 minutes, the dye was removed, flasks were rinsed with tap water followed by distilled water and were left to dry. Colonies were counted by two independent observers using the ImageJ software.

[3] = test system: human glioblastoma cells lines; assay: Cytotoxicity of the nonradioactive analogue; assay type: cell-based
Procedure: (§2) Cytotoxicity and radiosensitizing properties of the nonradioactive analogue were determined. Specifically, the cytotoxicity of the nonradioactive analogue N-[5-(3′-iodobenzoyl)-1H-benzimidazol-2-yl]carbamate was measured.

[4] = test system: human neuroblastoma cell lines; assay: Cytotoxicity of the nonradioactive analogue; assay type: cell-based
Procedure: as §2

[5] = test system: BE(2)-C; assay: Cell survival and LD50 determination (trypan blue exclusion); assay type: cell-based, human; details: value (std err)
Procedure: (§3) The final concentration of DMSO was maintained at ≤0.5% in all flasks including controls. With each treatment group, duplicate flasks of control cells were grown and harvested alongside treated cells. Each treatment was tested in duplicate in at least two independent experiments (n=4-6 per concentration). Cell numbers were determined after 1 hour, 24 hours, and 48 hours of exposure to drugs using the trypan blue exclusion assay. Aliquots of cell suspension were mixed with a 0.2% solution of trypan blue in PBS (1/1; v/v) and counted in Cellometer® (Nexcelom Bioscience, Lawrence, Mass.). […] The reproductive integrity was also evaluated using a clonogenic survival assay.

[6] = test system: SK-N-SH; assay: as above; assay type: cell-based, human; details: value (std err)
Procedure: as §3

[7] = test system: U137 MG; assay: as above; assay type: cell-based, human; details: value (std err)
Procedure: as §3, with “Compounds 1 or 2 dissolved in DMSO were added to the appropriate cell culture medium in concentrations ranging from 0 μM to 1.5 μM. Higher concentrations were not evaluated as the amount of DMSO required to maintain the drugs' solubility was not compatible with good cell culture conditions. The final” for “The final”
(§4) Results Cell survival and LD50 determination for compounds 1 and 2 on four human cancer cell lines—BE(2)-C(neuroblastoma), SK-N-SH cells (neuroblastoma), U-87 MG (glioblastoma), and U137 MG.

[8] = test system: U-87 MG; assay: as above; assay type: cell-based, human; details: value (std err)
Procedure: as §3, with “Compounds 1 or 2 dissolved in DMSO were added to the appropriate cell culture medium in concentrations ranging from 0 μM to 1.5 μM. Higher concentrations were not evaluated as the amount of DMSO required to maintain the drugs' solubility was not compatible with good cell culture conditions. The final” for “The final”
as §4

[9] = test system: BE(2)-C cells; assay: Clonogenic survival (reproductive integrity) with drug without and with XRT; assay type: cell-based, human
Procedure: as §1

## COC(=O)Nc1nc2cc(C(=O)c3cccc(I)c3)ccc2[nH]1 [Compound 2, Methyl N [5-(3′-iodobenzoyl)-1H-benzimidazol-2-yl]carbamate]
[1]
  solubility in common solvents: quite low solubility
[2]; 1 micromolar combined with 4 Gy ionizing radiation (XRT)
  cancer cells surviving: 4.8%
[2]; 1 micromolar, 24 hour exposure
  cancer cells killed: 89.8%
[2]; SK-N-SH and BE(2)-C cells, 1 μM, without and with XRT, 24 hours after treatment, FIG. 8A
  surviving fractions, cytotoxicity: very cytotoxic to the cancer cells, particularly in combination with irradiation
[3]
  cytotoxicity: micromolar range
[4]
  cytotoxicity: low nM range
[5]
  LD50: 0.02 (0.01) uM
[6]
  LD50: 1.29 (0.24) uM
[7]
  LD50: 2.62 (1.35) uM
[8]
  LD50: 0.20 (0.06) uM
[9]; BE(2)-C, 1 μM for 24 hours, without and with 4 Gy, FIGS. 8B and 8C
  clonogenic survival, cytotoxicity: very cytotoxic to the cancer cells, particularly in combination with irradiation
[9]; combined treatment of 4 Gy XRT and drug
  cells surviving, reproductive integrity assay: < 0.9%
[9]; drug alone
  cells surviving, reproductive integrity assay: 7.8%
